US20060172418A1, “Hypercoiling polymers and their use in cellular delivery” (priority 2002, published 2006)
“Also recorded” adds a separate entry of the source. Like-named read-outs stand apart in the source and are kept apart here.

Key:
[1] = test system: CHO cells; experiment: Uptake and internalisation of PD30 (LSCM); assay type: cell-based, Chinese hamster; conditions: pH 7.4, 37° C., 30 minutes; PD30 1 mg/mL, free dyes 0.01 mg/mL
Method: (§1) CHO or HepG2 cells (80,000 cells/mL) were seeded into Willco dishes and incubated overnight (24 hours) at 37° C. in a humidity controlled incubator in an air atmosphere supplemented with 5% CO2.
(§2) The cells were then washed three times with 2 mL D-PBS (Sigma, Poole, Dorset, UK) to remove excess serum. 2 mL of PD30 at a concentration of 1 mg/mL in D-PBS (pH 7.4) was added, and the cells incubated for 10 minutes at 37° C. in a humidity controlled incubator in an air atmosphere supplemented with 5% CO2.
(§3) Controls were prepared similarly, by the addition of 2 mL of bis-amino Cy3 at a concentration of 0.01 mg/mL in D-PBS (pH 7.4), or 2 mL of bis-sulphonic acid Cy3 at a concentration of 0.01 mg/mL in D-PBS (pH 7.4), followed by incubation for 10 minutes at 37° C. in a humidity controlled incubator in an air atmosphere supplemented with 5% CO2.
(§4) Laser Scanning Confocal Microscopy (LSCM) images were then obtained at 10 minute intervals, using an Olympus FV300 LSCM (Department of Chemical Engineering, University of Cambridge, Cambridge, Cambridgeshire, UK). The cells remained on the microscope for the duration of the imaging experiments.

[2] = test system: HepG2 cells; experiment: Uptake and internalisation of PD30 (LSCM); assay type: cell-based, Human; conditions: pH 7.4, 37° C., 30 minutes; PD30 1 mg/mL, bis-amino Cy3 0.01 mg/mL
Method: as §1, §2, §3, §4

[3] = Spectrophotometric titration with HCl; assay type: physicochemical; conditions: read-out: pKa of the bis-amino groups
Method: Aqueous solutions of polymers were titrated by with 1.0 N HCl delivered to an Aminco-SDP-125 spectrofluorimeter, equipped with a flow through cell, from a titration vessel, via a peristaltic pump.
Spectrophotometric titrations were carried out for a mixture of poly(L-lysine iso-phthalamide) at a concentration of 0.5 g/l and free bis-amino Cy3 at a fluorophore concentration of 0.26 mM (0.1 g/l), which yields the maximum emission intensity for this polymer/fluorophore combination.

[4] = test system: MCF7 cells; experiment: Polymer-conjugated doxorubicin uptake (flow cytometry); assay type: cell-based, human; conditions: 2 mM doxorubicin or equivalent; for uptake into cells: serum-free medium
Method: (§5) Control solutions, containing polymer (with no doxorubicin) and medium alone were also prepared. […] Samples (1 mL) of each test solution were placed in Eppindorf centrifuge tubes and placed in an incubator at 37° C. under a 5% CO2 atmosphere. 2×10^6 cells of each type were suspended in 300 μL of cell culture media (10% foetal calf serum, 2 mM L-Glutamine, 100 U/mL penicillin and 100 μg/mL streptomycin) and incubated at 37° C. under a 5% CO2 atmosphere. The study was initiated by adding 10 μL of cells to each test sample. After selected exposure times, the cells were pelleted by centrifuge and placed on ice. The cells were then re-suspended in phosphate buffer and analysed using a flow cytometer gated to count […] (approximately 10% of the total cell count). A histogram of fluorescence intensity vs. number of events, and the median value of fluorescence intensity, was recorded for each sample. Background fluorescence for cells alone, or for cells with DMSO, was subtracted from the corresponding test samples.

[5] = test system: MCF7/MXR cells; experiment: as above; assay type: cell-based, human; conditions: 2 mM doxorubicin or equivalent; for uptake into cells: serum-free medium
Method: as §5

[6] = test system: MCF7 cells; conditions: 5 days
Method: (§6) Subsequently, a standard MTT (3-(4,5-dimethylthiazol-2-yl)-2,5-diphenyl-2H-tetrazolium bromide) assay was performed in order to assess cell viability.
(§7) The total DMSO concentration was adjusted to 1% by volume, and the cells incubated at 37° C. under a 5% CO2 atmosphere for 5 days. […] Subsequently, a standard MTT assay was performed in order to assess cell viability.

[7] = test system: MCF7/MXR cells; conditions: 5 days
Method: as §6, §7

[8] = at 25° C.; cited from earlier work
[9] = test system: CHO cells; experiment: Interaction of PD20 with CHO cells at pH 7.4 and pH 5.5 (fluorescence microscopy); assay type: cell-based, Chinese hamster; conditions: 30 minute incubation at 37° C.
Method: A 2 mL suspension of CHO cells (10^5 cells/mL) was seeded into WilCo dishes (Intracel, Royston, UK) and incubated overnight (24 hours) at 37° C. in a humidity controlled incubator in an air atmosphere supplemented with 5% CO2.
The CHO cells were then washed three times with 100 μl of D-PBS (Sigma, Poole, Dorset, UK) to remove excess serum. 2 mL of PD20 (1 mg/mL) in D-PBS (Sigma, Poole, Dorset, UK) at pH 7.4 or titrated to pH 5.5 with 0.1 M HCl was then added to the Willco dishes.
The dishes were incubated for 30 minutes, the PD20 removed (by aspiration) and the cells washed three times with 2 mL D-PBS (Sigma, Poole, Dorset, UK) adjusted to pH 7.4 or pH 5.5 with 1.0 M HCl.
The CHO cells were then re-suspended in 2 mL of D-PBS at pH 7.4 or titrated to pH 5.5 with 0.1 M HCl and fluorescent photomicrogram images obtained on a Laser Scanning Confocal Zeiss LSM410 microscope (λex 535 nm, λem 570 nm) with a ×20 magnification lens (Amersham Biosciences, Cardiff, UK).
Phase contrast images of the CHO cells were obtained on the same microscope in non-fluorescence mode.

[10] = test system: CHO cells; experiment: Interaction of PD20 with CHO cells at pH 7.4, 6.0 or 5.0 (confocal time course); assay type: cell-based, Chinese hamster
Method: CHO cells (80,000/mL) were seeded into WilCo dishes and incubated overnight (24 hours) at 37° C. in a humidity controlled incubator in an air atmosphere supplemented with 5% CO2.
The CHO cells were then washed three times with 2 mL D-PBS (Sigma, Poole, Dorset, UK) to remove excess serum and incubated with 2 mL PD20 (1 mg/mL) in serum-free medium (F12 Nutrient Ham Mixture, Sigma, Poole, Dorset, UK) titrated to pH 7.4, 6.0, or 5.0 with 0.1 M HCl.
The CHO cells were then incubated for 10 minutes and washed three times with 2 mL D PBS (pH 7.4, 6.0, or 5.0). 2 mL of fresh D-PBS at the required pH (pH 7.4, 6.0, or 5.0) was added to each dish and the CHO cells were then imaged on a Zeiss LSM410 confocal microscope (Amersham Biosciences, Cardiff, UK) for 1 hour at 10 minute intervals (to reduce photobleaching and cell exposure to the laser). The cells were maintained at 37° C. on an integral heater stage.
The confocal microscope images were quantified using Metamorph™ software to give the fluorescence intensity.

[11] = test system: HepG2 cells; experiment: Co-localisation of PD20 with FITC-Alexa Fluor 488; assay type: cell-based, Human; conditions: 1 mg/mL, 15 minutes, pH 7.4
Method: HepG2 cells (80,000/mL) were seeded into WilCo dishes, and incubated overnight (24 hours) at 37° C. in a humidity controlled incubator in an air atmosphere supplemented with 5% CO2.
The HepG2 cells were then incubated for a period of 15 minutes with a mixture of PD20 at a concentration of 1 mg/mL and the endosomal labelling fluorophore FITC-Alexa Fluor 488 (Cambridge Biosciences, Cambridge, UK) at a concentration of 50 μg/mL in serum free medium (Dulbecco's Modified Eagle Medium, DMEM) appropriate for HepG2 cells (total volume 2 mL) at pH 7.4.
The supernatant was then removed and the cells washed three times with 2 mL DMEM. 2 mL of fresh D-PBS was added to each dish and the CHO cells were then imaged on a Zeiss LSM410 confocal microscope (λex 535 nm, λem 570 nm for PD20, λex 495 nm, λem 518 nm for FITC Alexa Fluor 488) (Amersham Biosciences, Cardiff, UK).

CCN1/C(=C/C=C/C2=[N+](CC)c3ccc(CN)cc3C2(C)C)C(C)(C)c2cc(CN)ccc21 [bis-amino Cy3, reference compound]
subcellular localisation after uptake [1]: localised in the endosome
nuclear staining [2]: No nuclear staining
subcellular localisation after uptake [2]: localised in the endosome
pKa [3]: 9.5

COc1cccc2c1C(=O)c1c(O)c3c(c(O)c1C2=O)C[C@@](O)(C(=O)CO)C[C@@H]3O[C@H]1C[C@H](N)[C@H](O)[C@H](C)O1 [doxorubicin, reference compound]
effect of 1% DMSO on uptake [4]: significantly enhances
uptake into cells [4]: taken up into cells
effect of 1% DMSO on uptake [5]: significantly enhances
uptake into cells [5]: taken up into cells
cytotoxic effect ([6]; 1% by volume of DMSO): significant cytotoxic effects
cytotoxic effect ([6]; without DMSO): significant cytotoxic effects
cytotoxic effect ([7]; 1% by volume of DMSO): significant cytotoxic effects
cytotoxic effect ([7]; without DMSO): significant cytotoxic effects

NCCCC[C@H](N)C(=O)O [lysine]
pKa [8]: about 2.18

Poly(L-lysine-co-Cy3-iso-phthalamide) [PD20]
adsorption onto the extracellular membrane of CHO cells ([9]; pH 5.5, 1 mg/mL): extensive adsorption
adsorption onto the membrane of CHO cells ([9]; pH 7.4, 1 mg/mL): weakly adsorbed
initial relative fluorescence intensity of cells at pH 6.0 and pH 5.0 versus pH 7.4 ([10]; 1 mg/mL): more than three times larger
time at which fluorescence intensity peaked ([10]; pH 5.0, 1 mg/mL): 20 min
time at which fluorescence intensity peaked ([10]; pH 6.0, 1 mg/mL): 30 min
relative fluorescence intensity of the cells with time ([10]; pH 7.4, 1 mg/mL): gradual increase
co-localisation with endosomal stain FITC-Alexa Fluor 488 [11]: uptake of the PD20 into the endosomal compartment

Poly(L-lysine-co-Cy3-iso-phthalamide) [PD30]
nuclear staining [1]: heavily stained; also recorded: clearly associated with the nucleus
subcellular localisation after uptake [1]: localised in the nucleus
nuclear staining [2]: heavy staining in the nucleus; also recorded: extensive nuclear staining
subcellular localisation after uptake [2]: localised in the nucleus

poly(lysine iso-phthalamide-co-lysine DOX iso-phthalamide) [polymer-conjugated doxorubicin]
effect of 1% DMSO on uptake [4]: little effect
uptake into cells [4]: taken up into cells
effect of 1% DMSO on uptake [5]: little effect
uptake into cells [5]: taken up into cells
